Read-outs that look alike come from different tables or passages of the source.
Legend:
[1] = tested on: Fusarium avenaceum; assay: Threshold concentration test in case of Fusarium avenaceum (infested soil, garden peas); format: in vivo; conditions: for number of sound peas: 20 grains per dish, 18 days at 20-24° C.; for root evaluation (1-4): 18 days
Protocol: Threshold concentration test in case of Fusarium avenaceum
A 20% pulverulent active agent of the type further identified in the table below was mixed in uniform manner with a soil which had been heavily infested with Fusarium avenaceum. The thus treated soil was then placed into clay dishes of a capacity of 0.5 l of earth. Each dish was seeded without any intervening time with 20 grains of garden peas (Pisum sativum L. convar. medullare Alef.) of the type "Wunder von Kelvedon". After a cultivation time of 18 days at 20° to 24° C. in a hot house the number of sound peas was determined and a root evaluation was carried out. The active agents employed, the amounts and results appear from the following table.
(§1) The root evaluation was carried out on a scale from 1 to 4 as follows: […]

[2] = tested on: Tilletia caries; assay: Treatment of oat seeds infested with Tilletia caries (spore germination); format: in vivo
[3] = tested on: Plasmopara viticola; assay: Prophylactic leaf treatment of grapevines in the hothouse against Plasmopara viticola; format: in vivo
Protocol: Effects of prophylactic leaf treatment of grapevines in the hothouse against Plasmopara viticola
Young grapevine plants having from 5 to 8 leaves were sprayed dripping wet with the concentrations of active agents stated in the table below. After drying of the spray deposit the leaves were sprayed with an aqueous suspension of sporangia of the fungus (about 20,000 per ml); the spraying was applied to the bottom side of the leaves. The plants were then immediately incubated in a hothouse at a temperature of 22° to 24° C. and at maximum water saturation in the atmosphere. Beginning with the second day the humidity of the air was reduced for 3 to 4 days to normal level (30 to 70% saturation) and was then maintained for another day on the level of full saturation. Subsequently, the percentage portion of the fungus infested surface of each leaf was noted and the average per treatment was calculated in order to determine the fungicidal activity. This was done on the basis of the following formula: [formula]
The active compounds were applied in the form of a 20% concentration spray powder.

[4] = tested on: Helminthosporium gramineum; assay: Seed treatment in open field tests for infestation by Helminthosporium gramineum (barley); format: in vivo; conditions: summer barley, about 3 months
Protocol: Seed treatment in open field tests for infestation by Helminthosporium gramineum
The active agents were used in the form of pulverulent compositions. After about 8 months in case of winter barley and after about 3 months in case of summer barley the infested plants were counted and the activity was calculated by the formula [formula]

[5] = tested on: Pythium ultimum; assay: Threshold concentration test for use of the compounds against Pythium ultimum (infested soil, garden peas); format: in vivo; design: key to root evaluation (1-4): 4: white roots without fungous necrosis; 3: white roots, minor fungous necrosis; 2: brown roots, already more pronounced fungous necrosis; 1: heavy fungous necrosis, roots rotted; conditions: for root evaluation (1-4): 3 weeks; for number of sound peas: 20 grains per dish, 3 weeks at 20-24° C.
Protocol: Threshold concentration test for use of the compounds against Pythium ultimum
A 20% concentration of certain pulverulent active agents as listed below were mixed in uniform manner into a soil which had been heavily infested by Pythium ultimum. The thus treated soil was then placed into clay dishes of a capacity of 0.5 l earth. Without any intermediate time lapse 20 grain of garden peas (Pisum sativum L. convar. medullare Alef.) of the type "Wunder von Kelvedon" were then seeded into each of the clay dishes. After a cultivation period of three weeks at 20° to 24° C. in a hothouse the number of sound peas was determined and a root evaluation was carried out. The active agents amounts and results appear from the following table.
as §1

[6] = tested on: Helminthosporium gram; conditions: about 5 weeks
Protocol: Treatment of barley seeds infested with Helminthosporium gram
After emergence, the plants were subjected to illumination for 12 hours per day. After about 5 weeks the infested plants were counted and the total number of plants for each test were also counted. The active agents tested were used as pulverulent compositions.

[7] = tested on: Piricularia oryzae; format: in vivo; conditions: 5 days
[8] = concentration of active agent 0.005 (unit not given)
[9] = concentration of active agent 0.025 (unit not given)
[10] = 50 g active agent/100 kg barley
[11] = concentration of active agent 0.001 (unit not given)
[12] = 25 g active agent/100 kg barley
[13] = 100 g active agent/100 kg barley
[14] = concentration of active agent 0.1 (percentages)

Structure (SMILES)	% activity ([2]; 20 g active agent per 100 kg) [%]	% activity ([2]; 50 g active agent per 100 kg) [%]	% activity [3, 8] [%]	% activity [3, 9] [%]	% activity [4, 10] [%]	root evaluation (1-4) ([5]; 20 mg/l soil)	number of sound peas ([5]; 20 mg/l soil)	root evaluation (1-4) ([5]; 40 mg/l soil)	number of sound peas ([5]; 40 mg/l soil)	root evaluation (1-4) ([5]; 80 mg/l soil)	number of sound peas ([5]; 80 mg/l soil)	% activity ([6]; 10 g active agent per 100 kg) [%]	% activity ([6]; 20 g active agent per 100 kg) [%]	% activity ([6]; 50 g active agent per 100 kg) [%]	% activity ([2]; 10 g active agent per 100 kg) [%]	further results
CCCCS(=O)(=O)c1nnc(C#N)s1 [5-butylsulfonyl-1,3,4-thiadiazole-2-carbonitrile]	95	100	91	93												number of sound peas ([1]; 25 mg/l soil): 18; root evaluation (1-4) ([1]; 25 mg/l soil): 4; number of sound peas ([1]; 50 mg/l soil): 20; root evaluation (1-4) ([1]; 50 mg/l soil): 4; number of sound peas ([1]; 100 mg/l soil): 20; root evaluation (1-4) ([1]; 100 mg/l soil): 4
CC[S+]([O-])c1nnc(C#N)s1 (stereo not shown) [5-ethylsulfinyl-1,3,4-thiadiazole-2-carbonitrile]	100	100	96	100	100	4	20	4	19	4	19	98	100	100	99.8	number of sound peas ([1]; 25 mg/l soil): 19; root evaluation (1-4) ([1]; 25 mg/l soil): 4; number of sound peas ([1]; 50 mg/l soil): 20; root evaluation (1-4) ([1]; 50 mg/l soil): 4; number of sound peas ([1]; 100 mg/l soil): 20; root evaluation (1-4) ([1]; 100 mg/l soil): 4; % activity [3, 11]: 89%
CCNC(=O)c1nnc(S(=O)(=O)CC)s1 [5-ethylsulfonyl-1,3,4-thiadiazole-2-carboxylic acid ethylamide]	100	100		98	99.5	4	15	4	16	4	16		100	100	99.3	% activity [4, 12]: 98%; % activity [4, 13]: 100%
CCS(=O)(=O)c1nnc(C(=O)N2CCOCC2)s1 [5-ethylsulfonyl-1,3,4-thiadiazole-2-carboxylic acid-(N,N-3-oxapentamethyleneamide]		100			99.3							99	100	100		
CCCCN(C)C(=O)c1nnc(S(=O)(=O)CC)s1 [5-ethylsulfonyl-1,3,4-thiadiazole-2-carboxylic acid-(N-butyl,N-methyl)-amide]	100	100	100	100	96.9								100	100	98	% activity [4, 12]: 94%; % activity [4, 13]: 99.5%; % activity [3, 11]: 100%
CCS(=O)(=O)c1nnc(C(=O)NC2CC2)s1 [5-ethylsulfonyl-1,3,4-thiadiazole-2-carboxylic acid-cyclopropylamide]	100	100													85	% activity ([4]; 200 g active agent/100 kg barley): 100%
CC(C)S(=O)(=O)c1nnc(C(N)=O)s1 [5-isopropylsulfonyl-1,3,4-thiadiazole-2-carboxamide]						4	17	4	18	4	19					% activity [7, 14]: 40%
COCCNC(=O)c1nnc([S+](C)[O-])s1 (stereo not shown) [5-methylsulfinyl-1,3,4-thiadiazole-2-carboxylic acid-(2-methoxyethyl)-amide]				96								75	97	100		
C[S+]([O-])c1nnc(C(=O)N2CCC2)s1 (stereo not shown) [5-methylsulfinyl-1,3,4-thiadiazole-2-carboxylic acid-N,N-trimethylenamide]	96	100	93	94		2	12	4	16	4	19		95	100		% activity [3, 11]: 86%
C=CCNC(=O)c1nnc([S+](C)[O-])s1 (stereo not shown) [5-methylsulfinyl-1,3,4-thiadiazole-2-carboxylic acid-allylamide]	100	100		90	100	4	20	4	19	4	18	94	99	100	99.2	
C[S+]([O-])c1nnc(C(=O)NC2CC2)s1 (stereo not shown) [5-methylsulfinyl-1,3,4-thiadiazole-2-carboxylic acid-cyclopropylamide]	98	100	80	90		1	15	4	20	4	20	72	98	99		
COCCCNC(=O)c1nnc(S(C)(=O)=O)s1 [5-methylsulfonyl-1,3,4-thiadiazole-2-carboxylic acid-(3-methoxypropyl)-amide]						1	9	4	20	4	19					% activity [7, 14]: 90%
CCC[S+]([O-])c1nnc(C#N)s1 (stereo not shown) [5-propylsulfinyl-1,3,4-thiadiazole-2-carbonitrile]	100	100	100	100	99.3	1	9	4	16	4	18		87	99	99	number of sound peas ([1]; 25 mg/l soil): 19; root evaluation (1-4) ([1]; 25 mg/l soil): 4; number of sound peas ([1]; 50 mg/l soil): 20; root evaluation (1-4) ([1]; 50 mg/l soil): 4; number of sound peas ([1]; 100 mg/l soil): 19; root evaluation (1-4) ([1]; 100 mg/l soil): 4; % activity [3, 11]: 100%
CCCS(=O)(=O)c1nnc(C(=O)OCC)s1 [5-propylsulfonyl-1,3,4-thiadiazole-2-carboxylic acid-ethylester]																% activity [7, 14]: 93%
CCC(C)S(=O)(=O)c1nnc(C(N)=O)s1 (stereo not shown) [5-sec.-butylsulfonyl-1,3,4-thiadiazole-2-carboxamide]					94									97		
CN(CCC(N)CC(=O)NC1C=CC(n2ccc(N)nc2=O)OC1C(=O)O)C(=N)N (stereo not shown) [Blasticidin-S, reference compound]																% activity ([7]; concentration of active agent 0.02 (percentages)): 90%; % activity [7, 14]: 97%
